{
  "source": "paper PMC9019100",
  "about": "“Development of NanoLuc-targeting protein degraders and a universal reporter system to benchmark tag-targeted degradation platforms” (Nature Communications, 2022)",
  "key": {"[1]": {"biological_target": "T1, Halo-EGFP-NanoLuc-FKBP^F36V (H-E-N-F) fusion protein (UniProt P0A3G2+P62942+Q9GV45, A155T/A167V/A172T/A224E/A31E/A60N/A81I/C128F/C176G/D78G/E160K/E257K/F37V/F95D/H272N/I117V/K175M/K195N/K70R/L47V/L54V/L88M/L99Q/M102K/N193R/N227D/P142E/P291S/Q151K/Q38R/Q45L/S2A/S58T/T264A/V71I/Y165I/Y273L/Y87F)", "format": "cell-based", "parameters": "expressed in transfected cells; host or cells: immortalized mouse dermal fibroblasts (iMDFs), ubiquitin promoter, constitutive", "details": "500 nM"}, "[2]": {"tested_on": "MLKL^−/− HT29 cells expressing untagged MLKL", "format": "cell-based", "details": "MLKL-/- + MLKL, independent experiments", "description": "(§1) Cell death was assessed by flow cytometric analysis of PI exclusion. […] Cell death was assessed by flow cytometric analysis of PI exclusion. […] Cell death was assessed by flow cytometric analysis of PI exclusion. e N = 4, f N = 3 independent experiments (symbols), EB represent mean ± SD. g Western from MLKL^−/−CASP8^−/− HT29 cells stably expressing the doxycycline-inducible C-terminal fusion protein, MLKL-NanoLuc (MLKL-NLuc) and constitutively expressing the C-terminal fusion protein caspase-8-FKBP^F36V. […] Cell death was assessed using an IncuCyte and Cytotox-Red uptake. N = 3 independent experiments, one representative experiment shown, EB represent mean ± SD.\n(§2) Degrader compounds or a DMSO vehicle control were added for 5 h, as stated in the Fig. legends. Cells were detached using Trypsin-EDTA (Merck) and resuspended in cell supernatants containing 10 μg/mL propidium iodide (PI). PI exclusion analysis was performed using an LSR II flow cytometer (Becton Dickinson, NJ) with 10,000 single-cell events per sample. Flow cytometry data were analysed using WEASEL version 2.7 software (Frank Battye)."}, "[3]": {"biological_target": "T1, Halo-EGFP-NanoLuc-FKBP^F36V (H-E-N-F) fusion protein", "format": "cell-based", "details": "replicate wells; for Blank corrected Raw Data (470-80): +dox, PROTAC 500nM"}, "[4]": {"biological_target": "recombinant NanoLuc enzyme (Oplophorus gracilirostris, UniProt Q9GV45, A31E/A60N/A81I/F95D/I117V/K70R/L54V/L99Q/M102K/N193R/P142E/Q151K/Q38R/Q45L/V71I/Y165I)", "sequence (Q9GV45 other isoform, or with tags, fused parts or gaps with the stated changes)": "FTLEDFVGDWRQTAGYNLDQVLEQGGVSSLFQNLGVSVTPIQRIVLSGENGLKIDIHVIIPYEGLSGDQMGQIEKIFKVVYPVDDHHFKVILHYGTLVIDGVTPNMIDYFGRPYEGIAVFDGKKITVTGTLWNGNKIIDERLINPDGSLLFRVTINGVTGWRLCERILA", "format": "biochemical"}, "[5]": {"tested_on": "MLKL^−/−CASP8^−/− HT29 cells expressing MLKL-NLuc and caspase-8-FKBP^F36V", "details": "TNF+SM"}, "[6]": {"tested_on": "MLKL^−/− HT29 cells expressing MLKL-NanoLuc", "format": "cell-based", "details": "for Live cells (%PI negative) after TNF+911+zVAD: MLKL-/- + MLKL NanoLuc, independent experiments", "description": "as §1, §2"}, "wild-type HT29 cells": {"tested_on": "wild-type HT29 cells", "assay": "Necroptosis assay (PI exclusion, flow cytometry), wild-type HT29 cells, TNF+SM+IDN", "format": "cell-based, human", "details": "Unt (no death stimulus); sheet S5F", "in_short": "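HT29 cells were pretreated 5 h with 500 nM degrader or DMSO, then stimulated 24 h with TNF (100 ng/mL), Smac mimetic compound A (500 nM–1 µM) and emricasan (IDN, 5 µM). Cell death was scored by flow cytometry as PI uptake (10 μg/mL PI, 10,000 events/sample), N = 3 replicates.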"}, "Fibrillarin-NanoLuc": {"biological_target": "T2, Fibrillarin-NanoLuc (Oplophorus gracilirostris, UniProt Q9GV45, A31E/A60N/A81I/F95D/I117V/K70R/L54V/L99Q/M102K/N193R/P142E/Q151K/Q38R/Q45L/V71I/Y165I)", "T2 construct": "endogenous in cells; host or cells: 293T, CRISPR/PITCh knock-in at the FBL locus", "T2 sequence (Q9GV45 other isoform, or with tags, fused parts or gaps with the stated changes)": "as above", "assay": "cell-based", "details": "HEK-293T; 500 nM, 10 h; read-out: Dmax (densitometry)"}},
  "note": "“And” between values parts separate entries of the source, which are not always exact repeats. Identical values can stand only once. Like-named read-outs stand apart in the source and are kept apart here.",
  "data": [
    {"compound": "CCc1cccc(N(CC)C(=O)Cn2c(C(=O)NC3CCC(C(=O)NCCCCCCCC(=O)NCCCCNc4cccc5c4C(=O)N(C4CCC(=O)NC4=O)C5=O)CC3)cc3ccccc32)c1", "note": "(stereo not drawn) [NC4]", "values": [
      {"measurement": "time up to which degradation was seen, degrader left in the medium", "setting": "[1]; 5, 24 or 48 h", "result": "up to 24 h"},
      {"measurement": "time up to which degradation was maintained, degrader removed at 5 h", "setting": "[1]; 24 or 48 h after removal", "result": "not maintained"},
      {"measurement": "Live cells (%PI negative) after TNF+911+zVAD", "setting": "[2]; 3.9nM", "result": "6.4 and 6.9 and 5.3"},
      {"measurement": "Live cells (%PI negative) after TNF+911+zVAD", "setting": "[2]; 7.8nM", "result": "6.6 and 6 and 6.3"},
      {"measurement": "Live cells (%PI negative) after TNF+911+zVAD", "setting": "[2]; 31.25nM", "result": "6.5 and 6 and 7.1"},
      {"measurement": "Live cells (%PI negative) after TNF+911+zVAD", "setting": "[2]; 62.5nM", "result": "6 and 5.5 and 7.5"},
      {"measurement": "Live cells (%PI negative) after TNF+911+zVAD", "setting": "[2]; 250nM", "result": "4.9 and 6.4 and 6.1"},
      {"measurement": "Live cells (%PI negative) after TNF+911+zVAD", "setting": "[2]; 500nM", "result": "4 and 4.7 and 6.1"},
      {"measurement": "Live cells (%PI negative) after TNF+911+zVAD", "setting": "[2]; 1000nM", "result": "5.9 and 5.2 and 6.1"},
      {"measurement": "NanoLuc luminescence, Blank corrected (470-80)", "setting": "[3]; 62.5nM, 2h", "result": "4980 and 5006 and 4972"},
      {"measurement": "NanoLuc luminescence, Blank corrected (470-80)", "setting": "[3]; 62.5nM, 4h", "result": "5208 and 3005 and 4773 and 4875"},
      {"measurement": "NanoLuc luminescence, Blank corrected (470-80)", "setting": "[3]; 62.5nM, 6h", "result": "2838 and 2892 and 3957"},
      {"measurement": "NanoLuc luminescence, Blank corrected (470-80)", "setting": "[3]; 62.5nM, 8h", "result": "2020 and 2221 and 2420"},
      {"measurement": "NanoLuc luminescence, Blank corrected (470-80)", "setting": "[3]; 62.5nM, 10h", "result": "1449 and 1207 and 1837"},
      {"measurement": "NanoLuc luminescence, Blank corrected (470-80)", "setting": "[3]; 250nM, 2h", "result": "1535 and 1072 and 1399"},
      {"measurement": "NanoLuc luminescence, Blank corrected (470-80)", "setting": "[3]; 250nM, 4h", "result": "1441 and 855 and 1118"},
      {"measurement": "NanoLuc luminescence, Blank corrected (470-80)", "setting": "[3]; 250nM, 6h", "result": "752 and 593 and 657 and 1043"},
      {"measurement": "NanoLuc luminescence, Blank corrected (470-80)", "setting": "[3]; 250nM, 8h", "result": "745 and 600 and 575"},
      {"measurement": "NanoLuc luminescence, Blank corrected (470-80)", "setting": "[3]; 250nM, 10h", "result": "292 and 341 and 527"},
      {"measurement": "NanoLuc luminescence, Blank corrected (470-80)", "setting": "[3]; 500nM, 2h", "result": "894 and 649 and 1055 and 784"},
      {"measurement": "NanoLuc luminescence, Blank corrected (470-80)", "setting": "[3]; 500nM, 4h", "result": "690 and 518 and 723"},
      {"measurement": "NanoLuc luminescence, Blank corrected (470-80)", "setting": "[3]; 500nM, 6h", "result": "437 and 546 and 398 and 460"},
      {"measurement": "NanoLuc luminescence, Blank corrected (470-80)", "setting": "[3]; 500nM, 8h", "result": "261 and 295 and 351"},
      {"measurement": "NanoLuc luminescence, Blank corrected (470-80)", "setting": "[3]; 500nM, 10h", "result": "255 and 239 and 173"},
      {"measurement": "Blank corrected Raw Data (470-80)", "setting": "[3]; DMSO (control) co-treatment", "result": "1248 and 1289 and 1195 and 929"},
      {"measurement": "Blank corrected Raw Data (470-80)", "setting": "[3]; co-treatment with MG132 (10uM)", "result": "3006 and 3126 and 2730 and 2907"},
      {"measurement": "reduced inhibition of NanoLuc enzymatic activity compared to the parent inhibitor (NanoLuc inhibitor 2)", "setting": "[4]", "result": "~ 30 fold"},
      {"measurement": "Cytotox-Red uptake (cell death), IncuCyte", "setting": "[5]; elapsed 0 h", "result": 176},
      {"measurement": "Cytotox-Red uptake (cell death), IncuCyte", "setting": "[5]; elapsed 0.5 h", "result": 196.812},
      {"measurement": "Cytotox-Red uptake (cell death), IncuCyte", "setting": "[5]; elapsed 1 h", "result": 269.75},
      {"measurement": "Cytotox-Red uptake (cell death), IncuCyte", "setting": "[5]; elapsed 2 h", "result": 726.062},
      {"measurement": "Cytotox-Red uptake (cell death), IncuCyte", "setting": "[5]; elapsed 3 h", "result": 1441.19},
      {"measurement": "Cytotox-Red uptake (cell death), IncuCyte", "setting": "[5]; elapsed 4 h", "result": 2153.69},
      {"measurement": "Cytotox-Red uptake (cell death), IncuCyte", "setting": "[5]; elapsed 5 h", "result": 2734},
      {"measurement": "Cytotox-Red uptake (cell death), IncuCyte", "setting": "[5]; elapsed 6 h", "result": 3193.62},
      {"measurement": "Cytotox-Red uptake (cell death), IncuCyte", "setting": "[5]; elapsed 6.5 h", "result": 3375.81},
      {"measurement": "Cytotox-Red uptake (cell death), IncuCyte", "setting": "[5]; elapsed 7 h", "result": 3569.31},
      {"measurement": "Cytotox-Red uptake (cell death), IncuCyte", "setting": "[5]; elapsed 7.5 h", "result": 3696.25},
      {"measurement": "Cytotox-Red uptake (cell death), IncuCyte", "setting": "[5]; elapsed 8 h", "result": 3846.56},
      {"measurement": "Cytotox-Red uptake (cell death), IncuCyte", "setting": "[5]; elapsed 9 h", "result": 4053},
      {"measurement": "Cytotox-Red uptake (cell death), IncuCyte", "setting": "[5]; elapsed 9.5 h", "result": 4125.31},
      {"measurement": "Cytotox-Red uptake (cell death), IncuCyte", "setting": "[5]; elapsed 10 h", "result": 4221.25},
      {"measurement": "Cytotox-Red uptake (cell death), IncuCyte", "setting": "[5]; elapsed 10.5 h", "result": 4287.44},
      {"measurement": "Cytotox-Red uptake (cell death), IncuCyte", "setting": "[5]; elapsed 11 h", "result": 4360},
      {"measurement": "Cytotox-Red uptake (cell death), IncuCyte", "setting": "[5]; elapsed 12 h", "result": 4474.25},
      {"measurement": "Cytotox-Red uptake (cell death), IncuCyte", "setting": "[5]; elapsed 13 h", "result": 4557.19},
      {"measurement": "Cytotox-Red uptake (cell death), IncuCyte", "setting": "[5]; elapsed 13.5 h", "result": 4775.06},
      {"measurement": "Cytotox-Red uptake (cell death), IncuCyte", "setting": "[5]; elapsed 14 h", "result": 4760.06},
      {"measurement": "Cytotox-Red uptake (cell death), IncuCyte", "setting": "[5]; elapsed 14.5 h", "result": 4770},
      {"measurement": "Cytotox-Red uptake (cell death), IncuCyte", "setting": "[5]; elapsed 15 h", "result": 4767.69},
      {"measurement": "Cytotox-Red uptake (cell death), IncuCyte", "setting": "[5]; elapsed 16 h", "result": 4884.75},
      {"measurement": "Cytotox-Red uptake (cell death), IncuCyte", "setting": "[5]; elapsed 17 h", "result": 4901.56},
      {"measurement": "Cytotox-Red uptake (cell death), IncuCyte", "setting": "[5]; elapsed 18 h", "result": 4950.62},
      {"measurement": "Cytotox-Red uptake (cell death), IncuCyte", "setting": "[5]; elapsed 19 h", "result": 4959.75},
      {"measurement": "Cytotox-Red uptake (cell death), IncuCyte", "setting": "[5]; elapsed 19.5 h", "result": 4920.31},
      {"measurement": "effect on MLKL-NanoLuc-driven necroptosis", "setting": "[6]; 5 h pre-treatment, then TSZ 24 h", "result": "sufficient to reduce MLKL-NanoLuc-driven necroptosis"},
      {"measurement": "Live cells (%PI negative) after TNF+911+zVAD", "setting": "[6]; 31.25nM", "result": "46.4 and 73.2 and 58.1"},
      {"measurement": "Live cells (%PI negative) after TNF+911+zVAD", "setting": "[6]; 62.5nM", "result": "53.4 and 72.4 and 68.5"},
      {"measurement": "Live cells (%PI negative) after TNF+911+zVAD", "setting": "[6]; 250nM", "result": "58.1 and 71.5 and 68.6"},
      {"measurement": "Live cells (%PI negative) after TNF+911+zVAD", "setting": "[6]; 500nM", "result": "54.7 and 68.7 and 64.4"},
      {"measurement": "Live cells (%PI negative) after TNF+911+zVAD", "setting": "[6]; 1000nM", "result": "53.1 and 66.7 and 61.4"},
      {"measurement": "viable cells (PI exclusion)", "setting": "wild-type HT29 cells", "result": "70.2 and 66.8 and 70.5"},
      {"measurement": "Dmax at 0.5 µM", "setting": "Fibrillarin-NanoLuc", "result": "~52.9", "unit": "%"}
    ]}
  ]
}
